Measurements taken from ChEMBL document CHEMBL1201862, “PubChem BioAssay data set” (2004).
One block for each compound: values may come before it. The source made the active and inactive calls.

What was measured:
[1] = test system: HeLa; assay: HeLa cell cytotoxicity, dose response, cytotoxicity control for MITF activator project, CellTiter-Glo luminescence, cherry-pick samples (AID 540259); type: functional, cell-based; conditions: Homo sapiens
[2] = biological target: T1, Cysteine protease ATG4B (Homo sapiens, UniProt Q9Y4P1); type: functional;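 also: Fluorescence-based dose-response confirmation assay measuring inhibition of ATG4B activity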
T1 sequence (Q9Y4P1 whole entry): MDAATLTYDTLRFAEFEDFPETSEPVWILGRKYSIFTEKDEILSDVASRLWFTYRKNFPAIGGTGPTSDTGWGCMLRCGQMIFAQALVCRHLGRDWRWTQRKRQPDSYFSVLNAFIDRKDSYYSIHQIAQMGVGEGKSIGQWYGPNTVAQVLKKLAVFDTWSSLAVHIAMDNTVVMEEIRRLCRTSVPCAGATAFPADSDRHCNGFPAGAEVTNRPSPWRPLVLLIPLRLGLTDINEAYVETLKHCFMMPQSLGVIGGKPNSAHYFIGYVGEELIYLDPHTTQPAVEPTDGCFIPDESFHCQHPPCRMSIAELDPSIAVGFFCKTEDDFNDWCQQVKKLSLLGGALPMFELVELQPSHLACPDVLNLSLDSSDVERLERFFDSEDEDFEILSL

[3] = biological target: Phospholipase A2 (Homo sapiens, UniProt P04054); type: functional;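 also: confirmatory dose-response counterscreen on phospholipase A2, testing hits that came from an ultra-high-throughput screen for ATG4B inhibitors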
[4] = biological target: T2, High affinity choline transporter 1 (Homo sapiens, UniProt Q9GZV3); assay: CHT inhibitors, dose response, cell-based, 5-point CRC, membrane potential dye (AID 504840); type: functional
T2 sequence (Q9GZV3 whole entry): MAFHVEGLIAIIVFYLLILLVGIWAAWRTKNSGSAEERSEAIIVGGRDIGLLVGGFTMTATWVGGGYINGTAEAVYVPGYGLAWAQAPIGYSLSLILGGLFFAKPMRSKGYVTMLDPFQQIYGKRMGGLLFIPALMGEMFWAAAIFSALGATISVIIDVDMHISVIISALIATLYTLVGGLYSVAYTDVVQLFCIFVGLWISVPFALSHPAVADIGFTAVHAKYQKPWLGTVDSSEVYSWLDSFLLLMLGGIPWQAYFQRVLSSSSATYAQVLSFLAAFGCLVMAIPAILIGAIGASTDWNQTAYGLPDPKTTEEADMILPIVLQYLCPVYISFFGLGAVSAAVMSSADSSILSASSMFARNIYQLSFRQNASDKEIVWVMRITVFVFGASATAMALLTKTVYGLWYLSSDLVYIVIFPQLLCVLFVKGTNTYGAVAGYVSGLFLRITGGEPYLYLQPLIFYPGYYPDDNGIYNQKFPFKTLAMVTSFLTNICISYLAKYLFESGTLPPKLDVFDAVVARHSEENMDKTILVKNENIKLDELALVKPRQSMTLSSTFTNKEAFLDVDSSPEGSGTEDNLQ

[5] = biological target: Glucose-6-phosphate 1-dehydrogenase (Homo sapiens, UniProt P11413); assay: human G6PD enzyme inhibitors, dose response, selectivity assay for P. falciparum G6PD inhibitor project, biochemical, fluorescence (AID 504792); type: functional
[6] = NIH-3T3 fibroblast cytotoxicity, dose response, cytotoxicity control, cell-based, fluorescence, Alamar Blue, secondary assay (AID 2327); type: functional;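 also: NIH-3T3 mouse fibroblasts cultured with fluconazole at 8 µg/mL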
[7] = C. albicans growth with fluconazole, confirmation, fluorescence, retest (AID 2467); type: functional, cell-based
[8] = test system: HEK293; assay: inhibitors of LMP1-driven NF-kB reporter, dose response, cell-based, HEK293, luciferase, cherry-pick (AID 588343); type: functional; conditions: Homo sapiens
[9] = test system: INS1; assay: beta cell apoptosis inhibitors, cytokine rescue, dose response, luminescence, retest (AID 449756); type: functional, cell-based; conditions: Rattus norvegicus;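 also: cell death triggered by IL-1 beta plus TNF-alpha plus IFN-gamma mixture; protective hits raise ATP signal compared with cytokine alone wells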
[10] = biological target: T3, SUMO-activating enzyme (Homo sapiens, UniProt Q9UBT2); assay: SUMOylation inhibitor hit validation, confirmation, SUMOylation inhibitor project, biochemical, AlphaScreen (AID 2018); type: functional
[11] = biological target: T3, SUMO-activating enzyme; assay: inhibitors of in vitro SUMOylation cascade, primary screen, biochemical, HTRF, uHTS (AID 2006); type: protein-complex assay
[12] = growth suppression of PTEN-null colon cells, dose response, cell-based, HCT116 PTEN knockout (AID 1047); type: functional;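 also: HCT116 colon tumor cells with PTEN knocked out; cells exposed to compound for 60 hours before readout; potency for loss of cell viability measured by luminescence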
[13] = biological target: T4, Calpain-2 catalytic subunit (Sus scrofa, UniProt P43367); assay: pig calpain II inhibitor potency, dose response, biochemical, fluorogenic peptide substrate (AID 1420); type: functional
T4 sequence (P43367 whole entry): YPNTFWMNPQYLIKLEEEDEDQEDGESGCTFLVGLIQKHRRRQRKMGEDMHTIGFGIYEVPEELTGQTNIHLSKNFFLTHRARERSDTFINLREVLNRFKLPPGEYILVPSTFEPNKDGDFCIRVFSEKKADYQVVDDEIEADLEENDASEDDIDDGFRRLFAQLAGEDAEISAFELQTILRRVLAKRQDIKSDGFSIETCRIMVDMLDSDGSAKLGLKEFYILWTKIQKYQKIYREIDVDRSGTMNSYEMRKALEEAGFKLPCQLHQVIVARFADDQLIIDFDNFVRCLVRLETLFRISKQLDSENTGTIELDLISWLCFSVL

[14] = growth suppression of beta-catenin-knockout colon cells, dose response, cell-based, HCT116, human colon tumor (AID 1045); type: functional;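 also: HCT116 colon tumor cells with beta catenin knocked out; cells exposed to compound for 60 hours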
[15] = biological target: Cytochrome P450 2C19 (Homo sapiens, UniProt P33261); assay: Cytochrome panel assay with activity outcomes. Panel member name: p450-cyp2c19 Compounds with AC50 equal or less than 10 uM are considered active; type: functional; conditions: read-out: AC50
[16] = biological target: Cytochrome P450 2C9 (Homo sapiens, UniProt P11712)
[17] = biological target: T5, Leucine aminopeptidase (Plasmodium falciparum 3D7, UniProt Q8IL11); assay: P. falciparum M17LAP inhibitors, primary screen, biochemical, fluorogenic H-Leu-NHMec substrate, 1536-well (AID 1619); type: functional
T5 sequence (Q8IL11 whole entry): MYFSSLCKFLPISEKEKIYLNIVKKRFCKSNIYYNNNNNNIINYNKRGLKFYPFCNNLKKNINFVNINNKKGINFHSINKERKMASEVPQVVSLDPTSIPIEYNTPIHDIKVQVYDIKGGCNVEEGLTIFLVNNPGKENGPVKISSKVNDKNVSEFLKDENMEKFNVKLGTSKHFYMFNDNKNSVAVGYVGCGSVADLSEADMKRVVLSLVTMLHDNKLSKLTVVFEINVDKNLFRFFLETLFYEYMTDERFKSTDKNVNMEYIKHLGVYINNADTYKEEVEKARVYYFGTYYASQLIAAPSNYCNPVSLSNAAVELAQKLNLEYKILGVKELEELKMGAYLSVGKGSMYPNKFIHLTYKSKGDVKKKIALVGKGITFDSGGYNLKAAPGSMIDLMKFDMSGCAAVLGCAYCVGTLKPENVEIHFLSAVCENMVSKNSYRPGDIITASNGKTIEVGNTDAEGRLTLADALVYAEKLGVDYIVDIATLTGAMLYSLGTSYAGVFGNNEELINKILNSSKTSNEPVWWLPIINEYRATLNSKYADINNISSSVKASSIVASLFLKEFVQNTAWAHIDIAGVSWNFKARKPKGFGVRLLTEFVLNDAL

[18] = biological target: Dual specificity tyrosine-phosphorylation-regulated kinase 1A (Rattus norvegicus, UniProt Q63470); type: biochemical, Homo sapiens

T3 sequence (Q9UBE0 whole entry): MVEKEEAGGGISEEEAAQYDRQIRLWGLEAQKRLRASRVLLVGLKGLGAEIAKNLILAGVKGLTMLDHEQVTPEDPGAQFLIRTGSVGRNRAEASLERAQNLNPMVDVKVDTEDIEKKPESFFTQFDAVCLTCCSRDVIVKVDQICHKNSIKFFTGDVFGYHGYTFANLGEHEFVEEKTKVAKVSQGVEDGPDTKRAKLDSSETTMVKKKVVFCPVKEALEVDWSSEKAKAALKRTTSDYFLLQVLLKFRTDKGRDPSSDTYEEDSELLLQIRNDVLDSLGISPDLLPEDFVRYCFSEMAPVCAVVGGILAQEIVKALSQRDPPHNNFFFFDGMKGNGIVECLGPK
T3 sequence (Q9UBT2 whole entry): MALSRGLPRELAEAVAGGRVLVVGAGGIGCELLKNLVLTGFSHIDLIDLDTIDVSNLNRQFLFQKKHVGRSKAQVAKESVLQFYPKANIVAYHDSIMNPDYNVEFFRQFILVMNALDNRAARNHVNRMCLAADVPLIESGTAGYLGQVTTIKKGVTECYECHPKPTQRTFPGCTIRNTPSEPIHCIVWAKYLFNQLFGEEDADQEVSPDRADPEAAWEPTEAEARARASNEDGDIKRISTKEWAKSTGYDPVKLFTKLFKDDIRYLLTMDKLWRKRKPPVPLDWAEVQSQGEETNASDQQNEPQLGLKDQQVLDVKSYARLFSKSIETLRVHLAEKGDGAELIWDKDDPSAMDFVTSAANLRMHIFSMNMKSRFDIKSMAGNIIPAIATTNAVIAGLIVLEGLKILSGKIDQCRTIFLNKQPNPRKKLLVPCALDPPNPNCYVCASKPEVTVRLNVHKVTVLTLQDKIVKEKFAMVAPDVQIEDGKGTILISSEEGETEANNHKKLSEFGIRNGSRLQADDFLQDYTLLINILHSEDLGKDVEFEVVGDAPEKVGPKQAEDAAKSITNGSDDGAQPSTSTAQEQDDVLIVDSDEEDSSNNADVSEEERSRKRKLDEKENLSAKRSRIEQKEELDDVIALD
Chain of Glucose-6-phosphate 1-dehydrogenase (P11413 whole entry): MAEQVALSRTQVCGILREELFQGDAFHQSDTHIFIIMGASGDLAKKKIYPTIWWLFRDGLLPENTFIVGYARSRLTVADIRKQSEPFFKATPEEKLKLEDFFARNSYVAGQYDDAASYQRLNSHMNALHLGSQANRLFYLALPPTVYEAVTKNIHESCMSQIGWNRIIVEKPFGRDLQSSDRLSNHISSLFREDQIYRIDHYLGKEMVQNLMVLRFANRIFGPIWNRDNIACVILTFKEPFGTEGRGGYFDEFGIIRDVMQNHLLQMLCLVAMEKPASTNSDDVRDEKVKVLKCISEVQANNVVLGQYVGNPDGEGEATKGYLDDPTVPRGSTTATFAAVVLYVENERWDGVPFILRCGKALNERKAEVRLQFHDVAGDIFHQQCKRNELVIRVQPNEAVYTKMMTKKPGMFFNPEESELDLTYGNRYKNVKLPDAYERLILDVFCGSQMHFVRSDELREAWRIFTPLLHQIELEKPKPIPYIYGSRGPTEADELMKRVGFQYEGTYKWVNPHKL
Chain of Phospholipase A2 (P04054 whole entry): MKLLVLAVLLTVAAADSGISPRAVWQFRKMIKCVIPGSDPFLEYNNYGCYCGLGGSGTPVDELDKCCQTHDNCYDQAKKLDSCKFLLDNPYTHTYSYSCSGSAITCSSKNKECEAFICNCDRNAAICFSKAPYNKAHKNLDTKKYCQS
Chain of Cytochrome P450 2C9 (P11712 whole entry): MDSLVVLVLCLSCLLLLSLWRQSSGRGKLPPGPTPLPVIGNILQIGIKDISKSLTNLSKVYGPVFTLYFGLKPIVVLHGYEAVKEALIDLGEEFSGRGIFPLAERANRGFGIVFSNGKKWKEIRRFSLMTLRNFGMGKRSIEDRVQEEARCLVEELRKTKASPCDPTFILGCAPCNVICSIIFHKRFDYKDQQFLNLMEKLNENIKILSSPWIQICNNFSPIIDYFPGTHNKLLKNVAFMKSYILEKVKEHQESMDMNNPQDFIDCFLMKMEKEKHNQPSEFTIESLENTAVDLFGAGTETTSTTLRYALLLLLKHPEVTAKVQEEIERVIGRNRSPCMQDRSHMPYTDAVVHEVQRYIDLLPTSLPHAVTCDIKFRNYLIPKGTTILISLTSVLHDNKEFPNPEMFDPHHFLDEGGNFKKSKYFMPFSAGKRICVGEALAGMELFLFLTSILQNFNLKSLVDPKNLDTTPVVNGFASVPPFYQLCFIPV
Chain of Cytochrome P450 2C19 (P33261 whole entry): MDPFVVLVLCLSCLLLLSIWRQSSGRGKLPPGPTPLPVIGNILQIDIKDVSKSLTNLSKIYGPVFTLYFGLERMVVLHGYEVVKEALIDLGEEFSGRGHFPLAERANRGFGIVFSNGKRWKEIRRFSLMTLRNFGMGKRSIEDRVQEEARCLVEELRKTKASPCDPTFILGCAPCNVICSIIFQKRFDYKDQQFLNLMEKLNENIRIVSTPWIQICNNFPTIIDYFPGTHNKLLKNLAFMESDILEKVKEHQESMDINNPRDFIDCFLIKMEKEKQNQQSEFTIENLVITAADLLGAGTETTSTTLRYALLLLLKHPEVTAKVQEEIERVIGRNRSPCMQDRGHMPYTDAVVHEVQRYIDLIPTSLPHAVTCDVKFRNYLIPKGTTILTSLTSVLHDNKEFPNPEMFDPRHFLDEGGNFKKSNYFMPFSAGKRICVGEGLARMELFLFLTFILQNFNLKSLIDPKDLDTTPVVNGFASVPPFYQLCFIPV

SMILES: CC(=O)c1ccc(NC(=O)Nc2ccc3c(c2)nc(C)n3C)cc1
AC50 [1]: 42.9 µM (active)

IC50 [2]: 5.74 µM (active)
IC50 [3]: 4.38 µM (active)
SMILES: CCCCCC(=O)Nc1ccccc1N1CCN(c2ccccc2)CC1

IC50 [4]: 14.5 µM (active)
SMILES: COc1ccc2ncc(S(=O)(=O)c3ccccc3)c(N3CCC4(CC3)OCCO4)c2c1

IC50 [5]: > 80 µM (inactive)
SMILES: O=C(Nc1nnc(C2CC2)s1)c1ccc(Cl)nc1

SMILES: CC(=O)c1ccc(N2CCN(c3ccnc4cc(Cl)ccc34)CC2)cc1
EC50 [6]: > 160 µM (inactive)
EC50 [7]: 4.05 µM (active)
AC50 [8]: 54.4 µM (active)

SMILES: Cc1ccc(C(=O)Nc2ncc3c(Cl)cccc3n2)cc1
AC50 [8]: 2.46 µM (active)

SMILES: CCC(=O)NC(c1cc(Cl)c2cccnc2c1O)C(C)C (centres undefined)
AC50 [8]: 6.68 µM (active)
AC50 [9]: 1.86 µM (active)

SMILES: Nn1c(CSc2nc3ccccc3o2)nnc1CSc1nc2ccccc2o1
IC50 [5]: > 80 µM (inactive)

SMILES: COc1ccc(-n2c(CNc3ccc(C)cc3)nnc2SCC(=O)Nc2nc(-c3ccccc3)cs2)cc1
IC50 [10]: 39.7 µM (active)
IC50 [11]: 21.9 µM (active)
EC50 [12]: 2.49 µM (active)
IC50 [13]: 21.4 µM (active)
EC50 [14]: 2.75 µM (active)
AC50 [15]: 355 nM (inconclusive)
AC50 [9]: 6.07 µM (active)
AC50 [16]: 7.94 µM (inconclusive)

SMILES: CC(=O)c1ccc2c(c1)Cc1cc(C(C)=O)ccc1-2
AC50 [1]: 96.8 µM (active)

IC50 [17]: 10.4 µM (active)
AC50 [18]: 3.12 µM (active)
SMILES: COc1ccc(N2Nc3[nH]nc(N)c3N2)cc1

IC50 [4]: 20.9 µM (active)
SMILES: O=C(C1CCCN(c2ncnc3c2nc2n3CCCCC2)C1)N1CCN(c2ccc(F)cc2)CC1 (centres undefined)
